# Test results published in US12416052B2, “Capturing, concentrating, and detecting microbes in a sample using magnetic ionic liquids and recombinase polymerase amplification” (priority 2019, dated 2025).
# “Also recorded” adds a separate entry of the source.
# Legend:
# [1] = tested on: K. aerogenes ATCC 29940; experiment: MIL-based whole-cell extraction; set-up: species or system Klebsiella aerogenes; settings: EF determined using Tryptic Soy Agar
# Experimental: A universal schematic for MIL-based cell extraction is depicted in FIG. 7B. A 1 mL volume of diluted cell suspension was added to a flat-bottomed 4-mL screw cap glass vial. Fifteen microliters of either the Ni(II) or Dy(III) MIL was added and dispersed into microdroplets by vortex agitation for 30 s. The aqueous phase was decanted following dispersive extraction, and the MIL was subjected to a brief wash step using 1 mL of nuclease-free water (Integrated DNA Technologies, Coralville, IA, USA) to ensure adequate removal of loosely or incidentally bound cells. […]
# Following back-extraction, aliquots of the cell-enriched back-extraction medium were serially diluted in 0.1% peptone water and a 10 μL aliquot of each dilution was applied to a separate lane on square plates containing an appropriate agar medium. […] Colonies were counted and colony forming units (CFU) were determined. The enrichment factor (EF) for MIL-based extraction was calculated using Equation 1, where CMIL represents the concentration of bacteria in suspension following extraction using the MIL and CS is the initial concentration of bacteria in the sample.
# [2] = tested on: S. typhimurium ATCC 14028; experiment: Exposure of cells and plating on non-selective (TSA) and selective (BSA) agar (viability, injury, toxicity); type: cell-based, Salmonella enterica; settings: exposure 0 to 15 min, 15 μL MIL
# Experimental: To examine whether exposure time to the Ni(II) MIL affected cell viability, MIL-based whole-cell extraction was performed using the Ni(II) MIL, and cell-enriched back-extraction media were enumerated at 0, 5, 10 and 15 min on both TSA and BSA. To evaluate toxicity of the [EMIM^+][SCN^−] IL, one milliliter of diluted S. typhimurium ATCC 14028 cell suspension was added to a 4-mL screw cap glass vial. A 5% (vol/vol) or 50% (vol/vol) aqueous solution of 1-ethyl-3-methylimidazolium thiocyanate (“[EMIM^+][SCN^−]”) (IoLiTec, Tuscaloosa, AL, USA) was added and mixed by vortexing for 30 s. Aliquots were enumerated at 0, 5, 10 and 15 min using TSA and BSA.
# One milliliter of diluted S. typhimurium ATCC 14028 cell suspension was added to a 4-mL screw cap glass vial. Fifteen microliters of either the Dy(III) MIL or 2-10 μL of 100 mM DyCh solution or 10 mg of the ammonium tetra(hexafluoroaceto)dysprosium salt (15) ([NH4^+][Dy(hfacac)4^−]) (“Dy(III) ammonium salt”) was added and dispersed by vortex agitation for 30 s. Aliquots of the Dy(III) MIL- or Dy(III) ammonium salt-exposed cell suspension were enumerated using square TSA or BSA plates (BD).
# Because culture-based methods depend on sample preparation steps that preserve bacterial viability, potential deleterious cytotoxic effects imparted by MIL extractants must be considered. To begin our further study of MIL-bacterial interactions, we selected S. typhimurium ATCC 14028 as a model gram-negative pathogen and the Ni(II) MIL as extractant. Briefly, a 1 mL aliquot of TSB was inoculated with 1×10^5 CFU mL^−1 of bacteria and spiked with 15 μL of the Ni(II) MIL, and the general schematic for MIL-based extraction and recovery followed as shown in FIG. 7B. After extraction, 10 μL aliquots of the back-extraction solution were enumerated at 0, 5, 10 and 15 min using TSA and BSA. Average CFU counts were compared to a standard that was not exposed to the Ni(II) MIL. […] To better understand the data in FIG. 8, statistical analyses of Ni(II) MIL capture precision and CFU count variation as a function of MIL exposure time were performed. Variation in MIL capture may stem from inherent randomness of MIL dispersion and coalescence behaviors.
# The effects of 5% or 50% (vol/vol) aqueous solutions of the [EMIM^+][SCN^−] IL on the viability of the cells were also evaluated. Average CFU counts were compared to a standard not exposed to [EMIM^+][SCN^−]. In our hands, when S. typhimurium was exposed to 50% (vol/vol) solutions of [EMIM^+][SCN^−], no recovery was observed on either TSA or BSA after 5 min of exposure.
# To gain further insight into this phenomenon, the effect of free elemental dysprosium was evaluated by subjecting the cells to 0.1 mM and 1.0 mM solutions of DyCl3. The cells were exposed to the metal salt solutions for 30 s and subsequently plated on selective and non-selective media.
# While the metal did show cytotoxicity, it cannot be completely responsible for the Dy(III) MIL's effect on the cells, as no flocculation was seen and growth was still observed. Since both the Ni(II) and the Dy(III) MILs contain identical cations ([P6,6,6,14^+]), the role of the anion structure was evaluated. The anion of the Dy(III) MIL contains one additional hexafluoroacetylacetonate ligand than the Ni(II) MIL (FIG. 7), making the coordination geometry of the two complexes different. To test the effects of the anion structure, cells were subjected to 10 mg of the Dy(III) ammonium salt. After a 30 second vortex, similar flocculation was observed as when the cells were exposed to the native Dy(III) MIL.
smiles,measurement,setting,value
"CCCCCCCCCCCCCC[P+](CCCCCC)(CCCCCC)CCCCCC.O=C([CH-]C(=O)C(F)(F)F)C(F)(F)F.O=C([CH-]C(=O)C(F)(F)F)C(F)(F)F.O=C([CH-]C(=O)C(F)(F)F)C(F)(F)F.[Ni+2] [Ni(II) MIL, [P66614^+][Ni(hfacac)3^−]]",Enrichment Factor,[1],71
same,injury to S. typhimurium: average CFU counts on TSA and BSA,[2],did not cause detectable injury; also recorded: appeared to be similar
